The NIST ThermoML archive (doi:10.1021/acs.jced.5b00849)
“And” between values parts separate entries of the source, which are not always exact repeats. Equal entries are not always repeated.

Columns and labels:
[1] = Boiling temperature at pressure P; conditions: Liquid, Ebulliometric method (Recirculating still)
[2] = Liquid, Ebulliometric method (Recirculating still)
[3] = refractive index (Na D-line) (dimensionless); conditions: 101 kPa, Liquid, Standard Abbe refractometry
[4] = refractive index (Na D-line) (dimensionless); xn = mol fraction of the nth substance listed; conditions: 101 kPa, Liquid, Standard Abbe refractometry

CO [methanol]
[1]
Conditions	Boiling temperature at pressure P [°C]
40 kPa	42.6
46.66 kPa	46
58.8 kPa	51.2
67.59 kPa	54.4
76.13 kPa	57.5

O [water]
Conditions	refractive index, 293.2 K	refractive index, 298.2 K	vapor or sublimation pressure, 319.6 K [kPa]	vapor or sublimation pressure, 354.8 K [kPa]	vapor or sublimation pressure, 373.2 K [kPa]
[2]	–	–	10.1	50.6	101.33
[3]	1.3332	1.3327	–	–	–

O [water] + CC1CCC(=O)O1
[4], x2 = 0
Conditions	refractive index
293.2 K	1.3332
298.2 K	1.3327

CC1CCC(=O)O1 (stereo not given) [γ-valerolactone]
Conditions	refractive index	vapor or sublimation pressure
[2], 347.1 K	–	0.67 kPa
[2], 356 K	–	1.33 kPa
[2], 370.4 K	–	2.67 kPa
[2], 384.5 K	–	5.07 kPa
[2], 401.4 K	–	10.1 kPa and 10.13 kPa
[2], 416.4 K	–	17.33 kPa
[2], 426.5 K	–	24 kPa
[2], 435.3 K	–	31.6 kPa
[2], 442.7 K	–	39.46 kPa
[2], 451.5 K	–	50.6 kPa and 50.66 kPa
[2], 459.2 K	–	62.26 kPa
[2], 465.3 K	–	73.06 kPa
[2], 469 K	–	80.53 kPa
[2], 477.8 K	–	101.19 kPa
[2], 480.2 K	–	101.33 kPa
[3], 293.2 K	1.4339	–
[3], 298.2 K	1.4316	–

CC1CCC(=O)O1 (stereo not given) [γ-valerolactone] + O
refractive index, [4]
Conditions	293.2 K	298.2 K
x1 = 0.0158	1.342	1.3411
x1 = 0.0318	1.3505	1.3499
x1 = 0.0532	1.3591	1.3585
x1 = 0.0789	1.3682	1.3671
x1 = 0.1066	1.3761	1.3751
x1 = 0.1405	1.3837	1.3826
x1 = 0.1855	1.3913	1.39
x1 = 0.2295	1.3987	1.397
x1 = 0.2964	1.4062	1.4046
x1 = 0.3833	1.4135	1.4119
x1 = 0.5097	1.4204	1.4186
x1 = 0.7092	1.4273	1.4259
x1 = 1	1.4339	1.4316
